Results as given in US9176153B2, “Prevention therapy and prognosis/monitoring in sepsis and septic shock” (NEDERLANDSE ORGANISATIE VOOR […] ONDERZOEK TNO, priority 2002, dated 2015).
Entries after “also recorded” stand apart in the source; their conditions may differ.

Assays:
[1] = tested on: LPS Re595; experiment: liver uptake and serum residence of 125I-LPS after intravenous injection in mice; type: in vivo, Wild-type (C57B1/6) mice; settings: for effect on behavior of 125I-LPS after intravenous injection (liver uptake, residence in blood): 125I-LPS Re595 10 μg/kg, LPS:apoCI 1:0.2 to 1:16, LPS:albumin 1:16
Experimental: Wild-type (C57B1/6) mice were anesthetized and, via the lower vena cava, injected intravenously with radioactively (^125I) labeled LPS Re595 (10 μg/kg) without, and with, respectively, apoCI (molar ratio LPS:apoCI=1:0.2, 1:0.5, 1:1 and 1:16) and bovine serum albumin (molar ratio LPS:albumin=1:16). Blood samples and bits of liver tissue were taken at t=2, 5, 10, 20 and 30 minutes after injection. After this, the mice were sacrificed. Next, the amounts of LPS in the blood sera and liver samples were quantified on the basis of the amount of radioactive radiation. Also, a serum sample was taken 30 minutes after injection of LPS:apoCI (1:1) and subjected to agarose gel electrophoresis to study the distribution of the ^125I-LPS over the various lipoproteins. Lipoprotein lipids were visualized with the aid of Sudan Black, and ^125I-LPS by means of autoradiography. In FIGS. 6A and 6B the amounts of ^125I-LPS in the liver and the blood serum, respectively, are plotted as a percentage of the injected dose against time (n=3.+−.SEM). […] Already at a molar ratio of 1:1, the uptake of LPS by the liver was reduced 8-fold. The strong binding of apoCI to LPS (see Example 2) therefore proves to be relevant in the blood too.

[2] = tested on: FITC-LPS Re595; experiment: monomerization of FITC-LPS by murine plasma with different apoCI levels; type: biochemical, mouse
Experimental: We have determined the effect of the apoCI level in murine plasma on monomerization of FITC-LPS as described in Example 2. For that purpose, FITC-LPS was incubated with plasma that had been isolated from wild-type mice, genetically modified mice which are deficient for apoCI (apocl^−/−), or genetically modified mice which express the human apoCI hemizygote (APOC1^+/0) or homozygote (APOC1^+/+).
FITC-LPS Re595 (100 ng) was incubated with plasma (0.125%) isolated from the blood of the various mouse types, after which the occurrence of fluorescence was followed in time with the aid of a fluorimeter. The expression of human apoCI in mouse plasma led to an apoCI-dose dependent increase of the FITC-LPS monomerization, which was 32% at a maximum. […] This indicates not only that mouse-apoCI, like human apoCI, is capable of monomerizing LPS, but especially also that the endogenous presence of apoCI contributes for a considerable part to the total LPS-disaggregated capacity of mouse plasma.

[3] = tested on: LPS Re595 (Salmonella minnesota); experiment: agarose gel electrophoresis of 125I-LPS incubated with human apoCI; type: binding
Experimental: LPS Re595 (Salmonella minnesota) was radioactively labeled with ^125I as described (Rensen, 1997) and incubated (30 min at 37° C.) with increasing amounts of human apoCI which has been isolated from human blood (Tournier, 1984). Next, the incubation volumes were transferred to an agarose gel (position Rf 0), after which, for 2 hours, an electrophoretic field was applied (so-called agarose gel electrophoresis). After electrophoresis, the ^125I-LPS was visualized by means of autoradiography. Through its negative charge, LPS tends to migrate to the positive pole (anode); which, however, is prevented in that the LPS forms large micellary structures that cannot pass the relatively small pores formed by the agarose matrix.
Also, the effect of increasing amounts of LPS on the migration of a fixed amount of apoCI was determined. For that purpose, the apoCI was visualized in the gel after electrophoresis by means of immunoblotting with a horseradish peroxidase-conjugated antibody directed against human apoCI (Academy Bio-Medical Company, Houston, USA; cat. 31H-G1b).

[4] = tested on: FITC-LPS Re595; experiment: monomerization of FITC-LPS by pure apolipoprotein (fluorescence dequenching); type: biochemical; settings: FITC-LPS Re595 100 ng, molar ratios 1:1, 1:5, 1:10 and 1:20
Experimental: Finally, the effect of apoCI on the monomerization rate of LPS was studied. […] FITC-LPS Re595 (100 ng) was incubated with pure human apoCI (in molar ratios 1:1, 1:5, 1:10 and 1:20), after which the occurrence of fluorescence was followed in time with the aid of a fluorimeter.

[5] = tested on: LPS; experiment: LPS-induced inhibition of apolipoprotein-specific sandwich ELISA; type: binding
Experimental: The apoCI level in blood plasma can be established in any suitable manner. Preferably, the apoCI level is determined with a sandwich Enzyme-Linked ImmunoSorbent Assay (sandwich ELISA). To this end, for instance 96-wells plates (medium-binding plates; Costar) are coated with a (10,000-fold dilution of a) polyclonal antibody to human apoCI generated in goat (goat-anti human apoCI; Academy Bio-Medical Company, Houston, USA; cat. 31A-Glb). Next, human blood plasma or serum is added (100,000-300,000-fold dilution), whereby the apoCI present therein is quantitatively bound by this primary antibody. […] The HRP is subsequently quantified by means of a stain reaction with 3,3′,5,5′-tetramethylbenzidine (TMB) as substrate, and the stain intensity is compared with a calibration curve which is constructed with pure human apoCI (Labconsult, Brussels, Belgium; cat. A50366H).
A particular amount of human apoCI (0.75 ng/mL) was incubated with LPS in increasing molar ratios, after which the apoCI concentration was determined with the aid of the human apoCI-specific sandwich ELISA as described above under F. The LPS-induced inhibition of the stain reaction from which the apoCI concentration is read, was determined as a percentage of the maximum staining in the absence of LPS (n=2.+−.SEM) (FIG. 3). […]

[6] = tested on: TNFα; experiment: LPS-induced TNFα response in mice; type: in vivo, Wild-type (C57B1/6) mice
Experimental: Wild-type (C57B1/6) mice were injected, by way of the tail vein, with LPS Re595 (25 μg/kg) without, and with, apoCI (molar ratio LPS:apoCI=1:5). Blood samples were taken at t=0, 30, 60, 90, 120 and 180 minutes after injection. In the samples, subsequently, the amount of TNFα was quantified with the aid of a mouse-TNFα specific ELISA according to the accompanying instructions (Immunosource, Halle, Belgium, cat. no. BMS607MST), and the amounts of TNFα in the blood plasma were subsequently plotted against time.

## Bovine serum albumin: bovine serum albumin used as control protein [reference compound]
[1]
  effect on behavior of 125I-LPS after intravenous injection (liver uptake, residence in blood): not effective

## TPDVSSALDKLKEFGNTLEDKARELISRIKQSELSAKMREWFSETFQKVKEKLKIDS (human apoCI peptide) [human apolipoprotein CI, 57 amino acids, 6.6 kDa, purified from human blood]
[2]; plasma 0.125% of APOC1+/0 or APOC1+/+ mice versus wild-type, maximum
  increase of the FITC-LPS monomerization by expression of human apoCI in mouse plasma: 32%
[3]; 0.5 molecules of apoCI with respect to 1 molecule of LPS, incubated 30 min at 37° C., 2 hours electrophoresis
  migration of 125I-LPS in agarose gel: complete migration of the LPS to the positive pole
[3]; fixed amount of apoCI, increasing amounts of LPS, immunoblotting
  migration of apoCI in agarose gel on binding of LPS: accelerated migration of apoCI to the positive pole
[4]
  increase in FITC fluorescence (monomerization of LPS): dose-dependent monomerization of LPS micelles
[4]; listed as ApoCI
  increase in FITC fluorescence (monomerization of LPS): increase strongly in a dose-dependent manner
[5]; 200-fold molar excess of LPS to apoCI, apoCI 0.75 ng/mL, percentage of maximum staining in absence of LPS
  LPS-induced inhibition of the staining reaction of apoCI-specific sandwich ELISA: more than 40%
[1]
  effect on behavior of 125I-LPS after intravenous injection (liver uptake, residence in blood): inhibit the decrease of LPS from the blood strongly and dose-dependently; also recorded: strongly reducing the uptake of LPS by the liver
[1]; molar ratio LPS:apoCI 1:1, 125I-LPS Re595 10 μg/kg intravenously
  reduction of uptake of LPS by the liver: 8 fold
[6]; LPS Re595 25 μg/kg with apoCI, molar ratio 1:5
  increase of the LPS-induced TNF level versus LPS alone: fourfold
[6]; LPS Re595 25 μg/kg with apoCI, molar ratio LPS:apoCI 1:5, tail vein, versus 2.8 for LPS alone
  LPS-induced TNF level in blood plasma: 10.8 ng/mL
[6]; equal amount of apoCI without LPS
  TNFα induction by apoCI without LPS: no TNFα inducing effect

## apoCIII: apolipoprotein CIII, 79 amino acids, two amphipatic helices, comparable size and structure to apoCI [reference compound]
[4]
  increase in FITC fluorescence (monomerization of LPS): hardly effective
[5]; comparable apoCIII-specific sandwich ELISA
  effect of LPS on quantification with apoCIII-specific sandwich ELISA: no effect

B1: APDLSGTLESIPDKLKEFGNTLEDKARAAIEHIKQKEILTKTRAWFSEAFGKVKEKLKTTFS (protein)
chain: APDLSGTLESIPDKLKEFGNTLEDKARAAIEHIKQKEILTKTRAWFSEAFGKVKEKLKTTFS
modifications: Muss p.; SITE (1)..(62) primary amino acid sequence of apoCI
notes: endogenous mouse apolipoprotein CI in murine plasma
[2]; plasma 0.125% of apoc1-/- mice versus wild-type
  reduction of monomerization of FITC-LPS owing to absence of mouse-apoCI: 60%
